{"source": "patent US12577234B2", "about": "“Antagonists of the muscarinic acetylcholine receptor M4” (Vanderbilt University, priority 2017, dated 2026)", "target": "T1, human mAChR M4 (Homo sapiens, UniProt P08173)", "T1 construct": "expressed in transfected cells; host or cells: CHO-K1 (ATCC), stably co-expressing chimeric G protein Gqi5", "T1 sequence (P08173 1-479)": "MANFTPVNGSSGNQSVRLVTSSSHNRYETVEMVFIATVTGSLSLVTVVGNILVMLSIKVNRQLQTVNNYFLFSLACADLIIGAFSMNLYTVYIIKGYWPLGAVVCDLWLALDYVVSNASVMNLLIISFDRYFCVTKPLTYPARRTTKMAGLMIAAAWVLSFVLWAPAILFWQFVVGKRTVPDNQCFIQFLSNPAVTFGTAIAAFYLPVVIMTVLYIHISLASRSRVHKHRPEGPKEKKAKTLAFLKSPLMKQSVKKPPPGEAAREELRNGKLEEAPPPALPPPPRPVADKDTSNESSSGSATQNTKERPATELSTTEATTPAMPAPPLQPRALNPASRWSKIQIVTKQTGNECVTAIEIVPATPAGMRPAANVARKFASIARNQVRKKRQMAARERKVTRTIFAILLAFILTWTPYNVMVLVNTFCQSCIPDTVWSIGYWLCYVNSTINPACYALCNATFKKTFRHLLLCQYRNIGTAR", "assay": "mAChR M4 cell-based functional assay (calcium mobilization, EC80 acetylcholine), human M4", "conditions": "Table 9; for Emin: human M4, % ACh maximum at 30 μM", "how_it_was_run": "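CHO-K1 cells stably expressing human M4 with chimeric Gqi5; intracellular calcium rise read on FDSS as fluorescence static ratio at 1 Hz. Compounds in 10-point 1:3 dilution series; IC50 taken as concentration-dependent decrease of the EC80 acetylcholine response, four-parameter logistic fit.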", "key": {"[1]": {"conditions": "M4/Gqi5/CHO-K1 cells, decrease of EC80 acetylcholine response"}}, "data": [{"smiles": "Cc1cccnc1CN1C[C@H]2C[C@@H](Oc3ccc(-c4cc(F)ccc4Cl)nn3)C[C@H]2C1", "note": "[Compound 58, (3aR,5r,6aS)-5-[6-(2-chloro-5-fluoro-phenyl)pyridazin-3-yl]oxy-2-[(3-methyl-2-pyridyl)methyl]-3,3a,4,5,6,6a-hexahydro-1H-cyclopenta[c]pyrrole]", "values": [{"measurement": "IC50", "setting": "[1]", "result": 1.46, "unit": "µM"}, {"measurement": "Emin", "result": 6.11, "unit": "%"}]}, {"smiles": "Fc1ccc(Cl)c(-c2ccc(O[C@@H]3C[C@@H]4CN(CC5CCOCC5)C[C@@H]4C3)nn2)c1", "note": "[Compound 59, (3aR,5r,6aS)-5-[6-(2-chloro-5-fluoro-phenyl)pyridazin-3-yl]oxy-2-(tetrahydropyran-4-ylmethyl)-3,3a,4,5,6,6a-hexahydro-1H-cyclopenta[c]pyrrole]", "values": [{"measurement": "Emin", "result": 20.7, "unit": "%"}, {"measurement": "IC50", "setting": "μM", "result": "> 10", "unit": "µM"}]}, {"smiles": "Cc1cnn(C)c1-c1ccc(NC[C@H]2C[C@@H]3CN(CCC(C)(C)C)C[C@@H]3C2)nn1", "note": "[Compound 61, N-[[(3aR,5s,6aS)-2-(3,3-Dimethylbutyl)-3,3a,4,5,6,6a-hexahydro-1H-cyclopenta[c]pyrrol-5-yl]methyl]-6-(2,4-dimethylpyrazol-3-yl)pyridazin-3-amine]", "values": [{"measurement": "IC50", "setting": "[1]", "result": 0.0356, "unit": "µM"}, {"measurement": "Emin", "result": 3.12, "unit": "%"}]}, {"smiles": "Cc1nn(C)cc1-c1ccc(NCC2C[C@@H]3CN(CC4CC5C=CC4C5)C[C@@H]3C2)nn1", "note": "(stereo partly drawn) [Compound 62, N-[[(3aR,6aS)-2-(5-bicyclo[2.2.1]hept-2-enylmethyl)-3,3a,4,5,6,6a-hexahydro-1H-cyclopenta[c]pyrrol-5-yl]methyl]-6-(1,3-dimethylpyrazol-4-yl)pyridazin-3-amine]", "values": [{"measurement": "IC50", "setting": "[1]", "result": 0.0189, "unit": "µM"}, {"measurement": "Emin", "result": 3.32, "unit": "%"}]}, {"smiles": "Cc1nn(C)cc1-c1ccc(NCC2C[C@@H]3CN(CC(C)C(C)(C)C)C[C@@H]3C2)nn1", "note": "(stereo partly drawn) [Compound 63, N-[[(3aR,6aS)-2-(2,3,3-trimethylbutyl)-3,3a,4,5,6,6a-hexahydro-1H-cyclopenta[c]pyrrol-5-yl]methyl]-6-(1,3-dimethylpyrazol-4-yl)pyridazin-3-amine]", "values": [{"measurement": "IC50", "setting": "[1]", "result": 0.108, "unit": "µM"}, {"measurement": "Emin", "result": 3.46, "unit": "%"}]}, {"smiles": "Cc1cnn(C)c1-c1ccc(NC[C@H]2C[C@@H]3CN(CC4CC5C=CC4C5)C[C@@H]3C2)nn1", "note": "(stereo partly drawn) [Compound 64, N-[[(3aR,5s,6aS)-2-(5-bicyclo[2.2.1]hept-2-enylmethyl)-3,3a,4,5,6,6a-hexahydro-1H-cyclopenta[c]pyrrol-5-yl]methyl]-6-(2,4-dimethylpyrazol-3-yl)pyridazin-3-amine]", "values": [{"measurement": "IC50", "setting": "[1]", "result": 0.0079, "unit": "µM"}, {"measurement": "Emin", "result": 3.74, "unit": "%"}]}, {"smiles": "Cc1cnn(C)c1-c1ccc(NC[C@H]2C[C@@H]3CN(CC(C)C(C)(C)C)C[C@@H]3C2)nn1", "note": "(stereo partly drawn) [Compound 65, N-[[(3aR,5s,6aS)-2-(2,3,3-trimethylbutyl)-3,3a,4,5,6,6a-hexahydro-1H-cyclopenta[c]pyrrol-5-yl]methyl]-6-(2,4-dimethylpyrazol-3-yl)pyridazin-3-amine]", "values": [{"measurement": "IC50", "setting": "[1]", "result": 0.253, "unit": "µM"}, {"measurement": "Emin", "result": 4.16, "unit": "%"}]}, {"smiles": "Cc1cnn(C)c1-c1ccc(NC[C@H]2C[C@@H]3CN(CC4CCOCC4)C[C@@H]3C2)nn1", "note": "[Compound 66, N-[[(3aR,5s,6aS)-2-(tetrahydropyran-4-ylmethyl)-3,3a,4,5,6,6a-hexahydro-1H-cyclopenta[c]pyrrol-5-yl]methyl]-6-(2,4-dimethylpyrazol-3-yl)pyridazin-3-amine]", "values": [{"measurement": "IC50", "setting": "[1]", "result": 3.79, "unit": "µM"}, {"measurement": "Emin", "result": 17.2, "unit": "%"}]}, {"smiles": "Cc1cnn(C)c1-c1ccc(NC[C@H]2C[C@@H]3CN(CC4CCCOC4)C[C@@H]3C2)nn1", "note": "(stereo partly drawn) [Compound 67, N-[[(3aR,5s,6aS)-2-(tetrahydropyran-3-ylmethyl)-3,3a,4,5,6,6a-hexahydro-1H-cyclopenta[c]pyrrol-5-yl]methyl]-6-(2,4-dimethylpyrazol-3-yl)pyridazin-3-amine]", "values": [{"measurement": "IC50", "setting": "[1]", "result": 5.31, "unit": "µM"}, {"measurement": "Emin", "result": 17.2, "unit": "%"}]}, {"smiles": "Cc1cccnc1CN1C[C@H]2C[C@H](CNc3ccc(-c4c(C)cnn4C)nn3)C[C@H]2C1", "note": "[Compound 68, N-[[(3aR,5s,6aS)-2-[(3-methyl-2-pyridyl)methyl]-3,3a,4,5,6,6a-hexahydro-1H-cyclopenta[c]pyrrol-5-yl]methyl]-6-(2,4-dimethylpyrazol-3-yl)pyridazin-3-amine]", "values": [{"measurement": "IC50", "setting": "[1]", "result": 0.618, "unit": "µM"}, {"measurement": "Emin", "result": 6.26, "unit": "%"}]}]}
